{
  "source": "patent US10646478B2",
  "about": "“Methods for treatment of melanoma” (CHILDREN'S MEDICAL CENTER CORPORATION, priority 2011, dated 2020)",
  "key": {"[1]": {"test_system": "A375 cells", "test": "Cell viability of melanoma cell line A375 (FIG. 28b)", "format": "cell-based, human", "source_text": "(§1) FIG. 28a, M481 cells. FIG. 28b, A375 cells. FIG. 28c, M405 cells. FIG. 28d, M528 cells. FIG. 28e, M715 cells."}, "[2]": {"test_system": "A375 melanoma cells", "test": "In vivo xenograft study of A375 cells in nude mice", "set-up": "species or system mouse", "settings": "daily i.p.; PLX4720 2.5 mg/kg, Leflunomide 7.5 mg/kg; DMSO 7.4+/−1.3-fold", "method": "The A375 cell line was chosen for xenografts based on prior experience with PLX4720 in this line. Cells were grown to 60-70% confluence, trypsinized and 3.5×10^5 cells were transplanted into the right flank of nude mice in a volume of 200 ul. […] Tumors were measured with digital calipers on day 4, 7 and 12 and growth rate was compared to the tumor size on day 0. Growth rates were compared between DMSO, PLX, LEF or […] using ANOVA with repeated measures to identify significant interactions. For the day 12 data, differences between the groups were compared using ANOVA followed by posthoc Tukey's least-squared difference."}, "[3]": {"test_system": "M481 cells", "test": "Cell viability of primary human melanoma cells M481", "format": "cell-based", "settings": "FIG. 28a", "source_text": "as §1"}, "[4]": {"test_system": "pigmented melanocytes in spt5m806 embryos", "test": "Spt5 hypomorphic experiments: pigmentation in spt5m806 incross", "format": "in vivo, zebrafish", "settings": "3 uM", "source_text": "This allele has only a mild pigment defect on its own. […] Embryos were scored at 48 hpf for pigmentation, scored as “unpigmented”, “light”, or “fully pigmented” as compared to untreated wells. Individual embryos were then genotyped for the spt5^m806 mutation as previously described^14. Kruskall-Wallis analysis was used to detect a difference between the genotyped groups."}, "[5]": {"test_system": "sox10, dct, ntl, gata1 expression", "test": "In situ hybridization for neural crest and non-neural crest lineage markers", "settings": "zebrafish, in vivo"}, "[6]": {"test_system": "M481 primary human melanoma xenografts", "test": "M481 primary human melanoma xenografts in mice", "format": "in vivo, mouse", "settings": "in combination with Plexicon"}, "[7]": {"test_system": "neural crest derivatives", "test": "Zebrafish neural crest assay (melanocytes, mitf-GFP, iridophores, mbp-mCherry glia, jaw cartilage)", "format": "in vivo", "source_text": "The mitf-GFP transgenic was scored at 24 hpf, as this is the point of maximal GFP intensity."}, "[8]": {"test_system": "A375 cell line", "test": "Microarray analysis of A375 cells treated with leflunomide", "format": "cell-based, human", "settings": "25 uM, 3 days", "method": "Expression analysis was performed using Illumina WG6 v3 arrays, and the data was analyzed using Illumina Genome Studio."}},
  "data": [
    {"smiles": "Cc1oncc1C(=O)Nc1ccc(C(F)(F)F)cc1", "note": "[leflunomide]", "values": [
      {"measurement": "cell survival of A375 cells", "setting": "[1]", "result": "impair cell survival"},
      {"measurement": "tumor growth at 12 days post-treatment", "setting": "[2]", "result": "4.7+/−0.12 fold"},
      {"measurement": "cell survival of M481 cells", "setting": "[3]", "result": "impair cell survival"},
      {"measurement": "embryos with few or no melanocytes, spt5m806 mutant", "setting": "[4]; mutant embryos", "result": 99, "unit": "%"},
      {"measurement": "embryos with few or no melanocytes, wild type", "setting": "[4]; wild type embryos", "result": 0, "unit": "%"},
      {"measurement": "expression of sox10 and dct (ISH)", "setting": "[5]", "result": "reduced expression of sox10 and dct"},
      {"measurement": "intensity of mesoderm marker ntl and blood marker gata1 (ISH)", "setting": "[5]", "result": "No significant difference is seen in intensity"},
      {"measurement": "tumor volume", "setting": "[6]", "result": "more effective when used in combination with Plexicon"},
      {"measurement": "microphthalmia", "setting": "[7]; 2.5 uM from 5-72 hpf", "result": "microphthalmia was induced"},
      {"measurement": "reflective iridophores on the surface of the eye", "setting": "[7]; 2.5 uM from 5-72 hpf", "result": "reduction of reflective iridophores on the surface of the eye"},
      {"measurement": "mitf-GFP+ cells", "setting": "[7]; 24 hpf", "result": "nearly complete loss of mitf-GFP+ cells"},
      {"measurement": "pigmented melanocytes", "setting": "[7]; 36-48 hpf", "result": "devoid of pigmented melanocytes"},
      {"measurement": "jaw cartilage", "setting": "[7]; 72 hpf", "result": "jaw cartilage disruption"},
      {"measurement": "myelin basic protein (mbp)-mCherry glial cells", "setting": "[7]; 72 hpf", "result": "reduction of myelin basic protein (mbp)-mCherry glial cells"},
      {"measurement": "gene expression in A375 (microarray)", "setting": "[8]", "result": "downregulation of genes required for neural crest development"}
    ]}
  ]
}
